{"source": "paper PMC3567233", "about": "(Biochemistry, 2012)", "tested_on": "M. bovis BCG transmembrane potential (ΔΨ)", "assay_type": "cell-based, Mycobacterium bovis BCG", "settings": "pH 7.2", "data": [{"smiles": "N#CC(C#N)=NNc1cccc(Cl)c1", "note": "[CCCP, carbonyl cyanide m-chlorophenylhydrazone]", "values": [{"measurement": "DiOC2 red / green fluorescence ratio, M. bovis", "value": "0.086±0.003"}]}]}
